From ChEMBL document CHEMBL4041503, “A Hexacyclic, Iboga-Derived Monoterpenoid Indole with a Contracted Tetrahydroazepine C-Ring and Incorporation of an Isoxazolidine Moiety, a Seco-Corynanthean, an Aspidosperma-Aspidosperma Bisindole with Anticancer Properties, and the Absolute Configuration of the Pyridopyrimidine Indole Alkaloid, …” (J Nat Prod, 2016)

Legend:
Type in all cases: functional, cell-based
[1] = system: KB/VJ300; experiment: Cytotoxicity against human KB/VJ300 cells assessed as reduction in cell viability after 72 hrs by MTT assay; conditions: KB/VJ300, 72 h
[2] = Cytotoxicity against human KB/S cells assessed as reduction in cell viability after 72 hrs by MTT assay
[3] = system: A549; experiment: Cytotoxicity against human A549 cells assessed as reduction in cell viability after 72 hrs by MTT assay; conditions: A549, 72 h
[4] = system: HCT-116; experiment: Cytotoxicity against human HCT116 cells assessed as reduction in cell viability after 72 hrs by MTT assay; conditions: HCT-116, 72 h
[5] = system: MDA-MB-231; experiment: Cytotoxicity against human MDA-MB-231 cells assessed as reduction in cell viability after 72 hrs by MTT assay; conditions: MDA-MB-231, 72 h
[6] = system: LNCaP; experiment: Cytotoxicity against human LNCAP cells assessed as reduction in cell viability after 72 hrs by MTT assay
[7] = system: MCF7; experiment: Cytotoxicity against human MCF7 cells assessed as reduction in cell viability after 72 hrs by MTT assay; conditions: MCF7, 72 h
[8] = system: HT-29; experiment: Cytotoxicity against human HT-29 cells assessed as reduction in cell viability after 72 hrs by MTT assay; conditions: HT-29, 72 h
[9] = system: PC-3; experiment: Cytotoxicity against human PC3 cells assessed as reduction in cell viability after 72 hrs by MTT assay; conditions: PC-3, 72 h

Compound	IC50 [1] [nM]	IC50 [2] [nM]	IC50 [3] [nM]	IC50 [4] [nM]	IC50 [5] [nM]	IC50 [6] [nM]	IC50 [7] [nM]	IC50 [8] [nM]	IC50 [9] [nM]
CC[C@]1(O)C[C@H]2CN(CCc3c([nH]c4ccccc34)[C@@](C(=O)OC)(c3cc4c(cc3OC)N(C=O)[C@H]3[C@@](O)(C(=O)OC)[C@H](OC(C)=O)[C@]5(CC)C=CCN6CC[C@]43[C@@H]65)C2)C1 [VINCRISTINE]	5900	2							
CC[C@]12C=CCN3CC[C@]4(C(=C(C(=O)OC)C1)Nc1cc5c(cc14)[C@@H]1[C@H](O5)[C@@H](O)[C@@]4(CC)CC(C(=O)OC)=C5Nc6c(cc(O)c(OC)c6OC)[C@@]56CCN1[C@@H]46)[C@@H]32	> 10000	1500	10000	800	900	900	600	1100	200
CC[C@@]12CC(C(=O)OC)=C3Nc4c(cc(O)c(OC)c4OC)[C@@]34CCN([C@@H]3c5cc6c(cc5O[C@@H]3[C@H]1O)NC1=C(C(=O)OC)C[C@]35CCO[C@H]3CCN3CC[C@@]16[C@@H]35)[C@@H]24	7400	500	> 10000	400	800	300	5900	300	1100
